Test results published in patent US12599601B2, “Antifungal composition containing carbazole compound as active ingredient” (KOREA UNIVERSITY RESEARCH AND BUSINESS FOUNDATION, priority 2019, dated 2026).
≈ marks a conversion by molar mass, not a printed value. Where “and” joins values, the source holds several entries; their conditions need not be identical. Equal entries are not always repeated. Where two headings read alike, the source gives them in different places.

What was measured:
[1] = test system: Candida albicans; assay: Inhibition of Candida growth, CLSI M27-A2 broth microdilution (absorbance, MIC); assay type: cell-based; conditions: for MIC: Candida, Table 2; for absorbance of the Candida strain: 37° C., 24 hours, replicate wells
Description: An inhibitory effect on Candida growth was evaluated using the CLSI M27 method, which is known as a standard method for antifungal susceptibility testing. The evaluation was performed using the broth microdilution method according to the guidelines of CLSI M27-A2. As medium, 10.4 g of RPMI-MOPS, which is RPMI-1640 medium (Gibco, Gaithersburg, MD, USA) supplemented with L-glutamine, was dissolved in 900 mL of distilled water, and then 34.53 g of 0.165 M 3-N-morpholinopropanesulfonic acid MOPS) buffer was dissolved therein to reach a final volume of 1,000 mL, followed by pH adjustment to 7.0. Then, the solution was filtered through a 0.2 μm filter, thus preparing a medium.
The carbazole compound was dissolved in triple distilled water or dimethyl sulfoxide (DMSO) (Sigma) to a concentration of 20 mg/mL.
A Candida strain was incubated in yeast extract peptone dextrose (YPED) for 16 hours at 30° C., and adjusted to 1.0 turbidity (measured by a spectrophotometer at 600 nm) so that the fungal concentration was about 2.0×10^7 CFU/mL. The fungal solution was washed with triple distilled water, and then diluted again with RPMI-MOPS medium, and 100 μL of the fungal solution was dispensed into each of well Nos. 1 to 10 of a 96-well microplate (final cell concentration: 2.0×10^4 CFU/mL). In addition, 100 μL of the fungal solution was dispensed into well No. 11 (a growth control well), and only 100 μL of RPMI-MOPS medium was dispensed into well No. 12 (a medium control well). After completion of fungal inoculation, the microplate was incubated at 37° C. for 24 hours.
For evaluation of the results, data were obtained by measuring the absorbance using a microplate spectrophotometer to prevent errors by the inspector.
In the data, the concentration at which growth was inhibited based on the medium control well was determined as MIC (minimum inhibitory concentration), and the results are shown in Table 2 below and FIG. 1.

[2] = test system: S. cerevisiae; assay: MIC test against budding yeast, same manner as Example 1-1; assay type: cell-based
[3] = test system: Candida SC5314; assay: Survival of candidiasis mouse models, compounds in drinking water; assay type: in vivo; conditions: Balb/C mice infected by tail vein; drinking water with molecule B 16 μg/ml or molecule C 32 μg/ml daily; monitored 2 weeks; control 0% within 9 days
Excerpt: (§1) For Candida infection, SC5314, a wild-type strain, was used, and 6-week-old Balb/C female mice were used. The mice were divided into two groups, each consisting of 5 mice, and the survival rate thereof was monitored.
The control group of the experiment using drinking water was provided with normal drinking water daily after Candida infection performed by tail vein injection as described in Example 3-1, and the experimental groups were provided daily with drinking water treated with molecule B at a concentration of 16 μg/ml or with drinking water treated with molecule C at a concentration of 32 μg/ml. The survival rates of the mice were monitored daily for 2 weeks.

[4] = test system: Candida SC5314; assay: Extent of kidney infection in Candida-infected mice; assay type: in vivo; conditions: Candida infection by tail vein injection; treated as in Example 3-1
Description: as §1
5.0×10^5 Candida cells were diluted in 200 μl of PBS and mice were infected with the dilution by tail vein injection. From day 1 after infection, the control group was inoculated with 200 μl of PBS by tail vein injection, the experimental groups were weighed and treated with molecule B (diluted in 100 μl of PBS) in an amount of 8 mg/kg by tail vein injection or treated with molecule C (diluted in 100 μl of PBS) in an amount of 16 mg/kg by tail vein injection.
After Candida infection performed by tail vein injection as described in Example 3-1, the mice showing the following conditions based on humane euthanasia standards were euthanized using CO2, and the kidneys were collected therefrom and the extents of infection thereof were compared: inability to eat food or drink water; abnormal breathing; dull and stiff hair; reduced movement; or bent posture or body tremor.

[5] = test system: A. fumigatus; assay: MIC test against A. fumigatus, same manner as Example 1-1; assay type: cell-based
[6] = test system: HeLa cells; conditions: 16 hours treatment, MTS, tested 1 to 64 μg/ml
Description: The cytotoxicity of the carbazole compound to mammalian cells was evaluated using the human cervical cancer cell line HeLa.
Cells were seeded into a 96-well microplate at a density of 1.0×10^4 cells per well, and cultured in 10% FBS-containing DMEM for 24 hours at 37° C. Then, the medium was removed, each well was washed once with PBS and then treated with the synthesized compound diluted in DMEM serially from a concentration of 64 μg/ml to a concentration of 1 μg/ml. 16 hours after treatment with the compound, cytotoxicity was measured using MTS.

[7] = Candida albicans, read-out: MIC

With `C(=C\c1ccccc1)/CN1CCN(CCCCCn2c3ccccc3c3ccccc32)CC1` [Molecule A] the MIC [1, 7] was 32 µg/mL (≈ 73.1 µM).
`CN(C/C=C/c1ccccc1)CCCCn1c2ccccc2c2ccccc21` [Molecule D] showed an MIC [1, 7] of 16 µg/mL (≈ 43.4 µM).
Compound `Nc1ccc(CCCCN2CCN(CCCCn3c4ccccc4c4ccccc43)CC2)cc1` [Molecule H] has an MIC [1, 7] of 32 µg/mL (≈ 70.4 µM).
With `Nc1ccc(CCCN2CCN(CCCCn3c4ccccc4c4ccccc43)CC2)cc1` [Molecule C] the “MIC against budding yeast S. cerevisiae” value [2] was 4 µg/mL (≈ 9.08 µM), the survival rate [3] was 80% and the “MIC against Candida” value [1] was 16 µg/mL (≈ 36.3 µM). For the same compound, the “absorbance of the Candida strain” value ([1]; 0.125 μg/ml compound) was 0.168 and 0.156 and 0.17, the “absorbance of the Candida strain” value ([1]; 0.25 μg/ml compound) was 0.189 and 0.193 and 0.162 and the “absorbance of the Candida strain” value ([1]; 0.5 μg/ml compound) was 0.182 and 0.25 and 0.199. The “absorbance of the Candida strain” value ([1]; 1 μg/ml compound) was 0.196 and 0.193 and 0.194, the “absorbance of the Candida strain” value ([1]; 2 μg/ml compound) was 0.19 and 0.198 and 0.188 and the “absorbance of the Candida strain” value ([1]; 4 μg/ml compound) was 0.194 and 0.24 and 0.195. For the same compound, the “absorbance of the Candida strain” value ([1]; 8 μg/ml compound) was 0.122 and 0.136 and 0.124, the “absorbance of the Candida strain” value ([1]; 16 μg/ml compound) was 0.044 and 0.04 and 0.038 and the “absorbance of the Candida strain” value ([1]; 32 μg/ml compound) was 0.043 and 0.039 (2×). The “absorbance of the Candida strain” value ([1]; 64 μg/ml compound) was 0.044 and 0.04 and 0.039, the MIC [1] was 16 µg/mL (≈ 36.3 µM) and the “extent of kidney infection compared to control mice” value [4] was “very low extent of kidney infection”. For the same compound, the “MIC against A. fumigatus” value [5] was 64 µg/mL (≈ 145 µM) and the “concentration up to which no toxicity to mammalian cells was shown” value [6] was ≤ 32000 ng/mL.
`Nc1ccc(CCCN2CCN(CCCCn3c4ccccc4c4cc([N+](=O)[O-])ccc43)CC2)cc1` [Molecule G] showed an MIC [1] of 16 µg/mL (≈ 32.9 µM).
Work on `Nc1cccc(CCCN2CCN(CCCCn3c4ccccc4c4ccccc43)CC2)c1` [Molecule E] yielded an MIC [1, 7] of 32 µg/mL (≈ 72.6 µM).
`Nc1ccc(CCCC2CCN(CCCCn3c4ccccc4c4ccccc43)CC2)cc1` [Molecule I] was tested, and the MIC [1, 7] was 32 µg/mL (≈ 72.8 µM).
In the case of `Nc1ccc(CCCN2CCN(CCCCn3c4ccccc4c4cccc(Br)c43)CC2)cc1` [Molecule J], the MIC [1] is reported as 32 µg/mL (≈ 61.6 µM).
In the case of `Nc1ccc(CCCN2CCN(CCCCn3c4ccccc4c4cc(Br)ccc43)CC2)cc1` [Molecule B], the “MIC against budding yeast S. cerevisiae” value [2] is reported as 4 µg/mL (≈ 7.7 µM), the survival rate [3] is reported as 100% and the “MIC against Candida” value [1] is reported as 8 µg/mL (≈ 15.4 µM). For the same compound, the “absorbance of the Candida strain” value ([1]; 0.125 μg/ml compound) was 0.209 and 0.229 and 0.206, the “absorbance of the Candida strain” value ([1]; 0.25 μg/ml compound) was 0.199 and 0.201 and 0.212 and the “absorbance of the Candida strain” value ([1]; 0.5 μg/ml compound) was 0.198 and 0.199 and 0.218. For the same compound, the “absorbance of the Candida strain” value ([1]; 1 μg/ml compound) was 0.224 and 0.228 and 0.208, the “absorbance of the Candida strain” value ([1]; 2 μg/ml compound) was 0.143 (2×) and 0.152 and the “absorbance of the Candida strain” value ([1]; 4 μg/ml compound) was 0.137 and 0.132 and 0.135. The “absorbance of the Candida strain” value ([1]; 8 μg/ml compound) was 0.041 (2×) and 0.034, the “absorbance of the Candida strain” value ([1]; 16 μg/ml compound) was 0.042 (2×) and 0.036 and the “absorbance of the Candida strain” value ([1]; 32 μg/ml compound) was 0.047 and 0.045 and 0.04. The “absorbance of the Candida strain” value ([1]; 64 μg/ml compound) was 0.043 and 0.044 and 0.036, the MIC [1] was 8 µg/mL (≈ 15.4 µM) and the “extent of kidney infection compared to control mice” value [4] was “very low extent of kidney infection”. For the same compound, the “MIC against A. fumigatus” value [5] was 64 µg/mL (≈ 123 µM) and the “concentration up to which no toxicity to mammalian cells was shown” value [6] was ≤ 16000 ng/mL.
`Nc1ccc(CCCN2CCN(CCCCN(c3ccccc3)c3ccccc3)CC2)cc1` [Molecule F] gave an MIC [1, 7] of 32 µg/mL (≈ 72.3 µM).
